From US9334530B2, “Methods for making and imaging arrays that comprise a plurality of different biomolecules” (AmberGen, Inc., priority 2007, dated 2016)

Biological target: T1, PKCα (Homo sapiens, UniProt P17252)
T1 construct: isolate and photo-release endogenous PKCa from the undiluted detergent fractionated HeLa cell extracts; endogenous in cells; host or cells: HeLa cells (ATCC)
Assay: PMA mediated PKCα sub-cellular translocation, measured by kinase activity after photocleavable antibody isolation
Format: cell-based
Settings: cultured HeLa cells stimulated with 200 nM PMA for 5 min, detergent fractionated; based on kinase activity of isolated PKCα; n=4
Experimental: FIG. 20. Phorbol ester (PMA) mediated protein kinase Cα (PKCα) sub-cellular translocation as measured by functional activity following isolation with photocleavable antibodies. Cultured HeLa cells were stimulated with 200 nM PMA for 5 min and detergent fractionated into the cytosol and membrane compartments prior to isolation and purification with the photocleavable antibodies.
Cultured HeLa cells (ATCC; Manassas, Va.) were stimulated for 5 min with 200 nM Phorbol-12-Myristate-13-Acetate (PMA; EMD Biosciences, Inc., San Diego, Calif.) and subsequently detergent fractionated into sub-cellular compartments according to reported procedures [Ramsby et al. (1994) Electrophoresis 15, 265-277; Ramsby & Makowski. (1999) Methods Mol Biol 112, 53-66; Chiang et al. (2000) J Biochem Biophys Methods 46, 53-68]. PMA is a potent activator of PKCα and is well known to cause translocation of the kinase from the cytosolic to the membrane sub-cellular compartments [Ross & Joyner. (1997) Endothelium 5, 321-332; Bazan & Rapoport. (1996) JPharmacol Toxicol Methods 36, 87-95; Yazlovitskaya & Melnykovych. (1995) Cancer Lett 88, 179-183]. […]

With `CCCCCCCCCCCCCC(=O)O[C@@H]1[C@@H](C)[C@@]2(O)[C@@H](C=C(CO)C[C@]3(O)C(=O)C(C)=C[C@@H]23)[C@@H]2C(C)(C)[C@]12OC(C)=O` [PMA, Phorbol-12-Myristate-13-Acetate] the “relative sub-cellular distribution of PKCα: cytosol” value was 16±4% and the “relative sub-cellular distribution of PKCα: membrane” value was 84±3%.
